A short description of the data set: Solubility in aqueous solution. Type of data set: physicochemical. An excerpt: In some cases, the DHEAS will associate with or form a complex with the divalent cation which is less soluble than the DHEAS sodium salt.

As to “Dehydroepiandrosterone sulfate [DHEAS-Na]”, the solubility result is on record as “about 17 mg/ml”.

The record behind these values is US20090118249A1, “DHEAS INHALATION COMPOSITIONS” (priority 2007, published 2009).
